According to patent publication US9347077B2, “Over-expression of a putative oxidoreductase (UcpA) for increasing furfural or 5-hydroxymethylfurfural tolerance” (UNIVERSITY OF FLORIDA RESEARCH FOUNDATION, INCORPORATED, priority 2011, dated 2016):

Experiments:
Format in all cases: cell-based, Escherichia coli
LY180 = test: pH-controlled batch fermentation (10% xylose)
[1] = test system: oxidoreductase gene mRNA in LY180; test: Comparison of mRNA levels before and after furfural addition (expression array); details: 1.5 g/L furfural addition in LY180
Procedure: Analysis of mRNA as a measure of gene expression was performed as previously described (Miller et al., 2009a). Cultures were grown using 4 separate 500-ml fermentation vessels per strain. Initial samples (control) were removed for RNA extraction when the culture density reached approximately 0.66 g dry cell weight (dcw) liter^−1 (1.5 OD 550 nm). Furfural (15 mM) was then added and incubation continued. After 15 min incubation with furfural, cells were harvested for RNA extraction. RNA was submitted to NimbleGen for analysis of global expression. Expression data was further analyzed using ArrayStar and Excel.
UcpA was discovered accidentally as a beneficial gene for furfural tolerance during a search for E. coli NADH-utilizing oxidoreductase genes that could reduce furfural and confer resistance. […] We began by comparing expression levels of all E. coli genes in the absence of furfural and in the presence of 15 mM furfural (Table 1). […] These were further sorted to identify 5 candidate oxidoreductases that are known or putative users of NADH and have a 3-fold or higher expression level in the presence of 15 mM furfural. One of the genes was fucO, a gene previously discovered to reduce furfural using NADH and to increase furfural tolerance in E. coli. Four new candidates were identified. Two were operons encoding subunits (xdhABC and YeiTA) and two were monocistronic (ucpA and aldA). These 4 candidates are shown in bold type in Table 2.

LY180/pLOI4856 = test: pH-controlled batch fermentation (10% xylose)
Procedure: (§1) Seed pre-cultures of strains containing pTrc99A or pLOI4856 were grown from plates using sealed culture tubes containing AM1 medium (20 g liter^−1 xylose, 12.5 mg liter^−1 ampicillin). After incubation for 16 h, pre-inocula were diluted into 500-ml fermentation vessels containing 300 ml AM1 media (100 g liter^−1 xylose, 1 mM betaine, 0.1 mM IPTG, 12.5 μg ml^−1 ampicillin) to provide a starting density of 13.2 mg dcw. After 24 h growth, these seed cultures were used to provide a starting inoculum for batch fermentations (AM1 medium, 100 g liter^−1 xylose, 12.5 μg ml^−1 ampicillin, 0.1 mM IPTG, 13.2 mg dcw initial density, and furfural). Fermentations were maintained at pH 6.5 […] by the automatic addition of KOH as previously described (Miller et al., 2009b). Ethanol was measured using an Agilent 6890N gas chromatograph (Palo Alto, Calif.) equipped with a flame ionization detector and a 15-meter HP-Plot Q Megabore column. Furfural concentration was monitored using a Beckman DU spectrophotometer (Martinez et al., 2000b; Miller et al., 2009b). Organic acids and xylose were measured by high-performance liquid chromatography (Miller et al., 2009b).
(§2) The effects of UcpA on growth, ethanol production, and furfural metabolism were investigated in more detail during pH-controlled batch fermentation in mineral salt medium (AM1 medium containing 100 g xylose liter^−1, 0.1 mM IPTG and 12.5 μg ml^−1 ampicillin for all cultures harboring plasmids; furfural as indicated; inoculum of 22 mg dcw liter^−1) as previously described (Wang et al., 2011b). Ethanol (retention time 1.1 min) and furfuryl alcohol (retention time 6.2 min) were measured using an Agilent 6890N gas chromatograph (Santa Clara, Calif.) (Miller et al., 2009b). Furoic acid (retention time of 51.2 min) and sugars were measured by high-performance liquid chromatography (Geddes et al., 2010a). Furfural was measured using a Beckman-Coulter DU 800 spectrophotometer (Martinez et al., 2000a).

LY180/pTrc99A = test: pH-controlled batch fermentation (10% xylose)
Procedure: as §1, §2

E. coli W/pTrc99A = test: pH-controlled batch fermentation (10% xylose); details: 10 mM furfural
LY180 (pLOI4856) = test: Furfural toxicity / MIC in tube cultures, ucpA plasmid; details: Escherichia coli, 48 h, read-out: MIC of furfural
Procedure: Furfural toxicity was measured in tube cultures (13 mm by 100 mm) containing 4 ml of AM1 medium with 50 g liter^−1 xylose, 12.5 mg liter^−1 ampicillin, furfural, and other supplements as indicated (Miller et al., 2009a, b). Cultures were inoculated to an initial density of 22 mg dcw liter^−1. IPTG (0.1 mM) was included for fucO induction. Cell mass was measured at 550 nm after incubation for 48 h (37° C.). For cysteine supplement experiment, the culture condition was the same but included 0.1 mM cysteine as an amendment.
Derivatives of LY180 containing these plasmids were tested for furfural tolerance with (0.1 mM IPTG) and without IPTG induction using an MIC assay (Miller et al., 2009a; Miller et al., 2010; Wang et al., 2011b).

[2] = 15 mM furfural, batch fermentation of xylose to ethanol

For `O=Cc1ccco1` [furfural], the “Cell Yield” value (LY180; 8 mM furfural) was 4.0 ± 0.1 g/L, the “Furfural-dependent slow growth μ” value (LY180; 8 mM furfural) was 0.09 ± 0.01 h⁻¹ and the “μ Max” value (LY180; 8 mM furfural) was 0.16 ± 0.01 h⁻¹. The “Cell Yield” value (LY180; 10 mM furfural) was 0.08 ± 0.02 g/L, the “Furfural-dependent slow growth Duration” value (LY180; 10 mM furfural) was over 72 h and the “Furfural-dependent slow growth μ” value (LY180; 10 mM furfural) was under 0.04 h⁻¹. For the same compound, the “μ Max” value (LY180; 10 mM furfural) was under 0.04 h⁻¹, the “Fold increase of mRNA, yagQ” value ([1]; b0283-b0286 yagQRST, 1st value) was 2.2 fold and the “Fold increase of mRNA, yagR” value ([1]; b0283-b0286 yagQRST, 2nd value) was 2.3 fold. For the same compound, the “Fold increase of mRNA, yagS” value ([1]; b0283-b0286 yagQRST, 3rd value) was 4.7 fold, the “Fold increase of mRNA, yagT” value ([1]; b0283-b0286 yagQRST, 4th value) was 3.5 fold and the “Fold increase of mRNA, ykgE” value ([1]; b0306) was 2.0 fold. The “Fold increase of mRNA, frmB” value ([1]; b0355-b0356 frmBA, 1st value) was 4.4 fold, the “Fold increase of mRNA, frmA” value ([1]; b0355-b0356 frmBA, 2nd value) was 5.7 fold and the “Fold increase of mRNA, yajO” value ([1]; b0419) was 2.6 fold. For the same compound, the “Fold increase of mRNA, ybdH” value ([1]; b0599) was 3.0 fold, the “Fold increase of mRNA, sdhA” value ([1]; b0723-b0724 sdhAB, 1st value) was 5.3 fold and the “Fold increase of mRNA, sdhB” value ([1]; b0723-b0724 sdhAB, 2nd value) was 5.8 fold. For the same compound, the “Fold increase of mRNA, ybiC” value ([1]; b0801) was 2.2 fold, the “Fold increase of mRNA, wrbA” value ([1]; b1004) was 3.0 fold and the “Fold increase of mRNA, yciW” value ([1]; b1287) was 2.4 fold. The “Fold increase of mRNA, ydbC” value ([1]; b1406) was 2.9 fold, the “Fold increase of mRNA, aldA” value ([1]; b1415) was 4.2 fold and the “Fold increase of mRNA, ydcW” value ([1]; b1444) was 2.5 fold. The “Fold increase of mRNA, yncB” value ([1]; b1449) was 2.6 fold, the “Fold increase of mRNA, nemA” value ([1]; b1650) was 6.4 fold and the “Fold increase of mRNA, yobF” value ([1]; b2137) was 8.5 fold. For the same compound, the “Fold increase of mRNA, yeiT” value ([1]; b2146-b2147 yeiTA, 1st value) was 3.1 fold, the “Fold increase of mRNA, yeiA” value ([1]; b2146-b2147 yeiTA, 2nd value) was 3.0 fold and the “Fold increase of mRNA, yeiQ” value ([1]; b2172) was 2.3 fold. The “Fold increase of mRNA, ucpA” value ([1]; b2426) was 4.5 fold, the “Fold increase of mRNA, yphC” value ([1]; b2545) was 2.3 fold and the “Fold increase of mRNA, fucO” value ([1]; b2799) was 4.4 fold. For the same compound, the “Fold increase of mRNA, xdhABC” value ([1]; b2868) was 5.8 fold, the “Fold increase of mRNA, ygfS” value ([1]; b2886) was 2.1 fold and the “Fold increase of mRNA, yqfA” value ([1]; b2899) was 2.2 fold. The “Fold increase of mRNA, yghZ” value ([1]; b3001) was 2.0 fold, the “Fold increase of mRNA, yqhD” value ([1]; b3011) was 4.6 fold and the “Fold increase of mRNA, dkgA” value ([1]; b3012) was 5.4 fold. For the same compound, the “Fold increase of mRNA, yiaK” value ([1]; b3572) was 2.4 fold, the “Fold increase of mRNA, aldB” value ([1]; b3588) was 5.7 fold and the “Cell Yield” value (LY180/pLOI4856; 10 mM furfural) was 3.6 ± 0.1 g/L. The “Furfural-dependent slow growth Duration” value (LY180/pLOI4856; 10 mM furfural) was 22 ± 2 h, the “Furfural-dependent slow growth μ” value (LY180/pLOI4856; 10 mM furfural) was 0.09 ± 0.01 h⁻¹ and the “μ Max” value (LY180/pLOI4856; 10 mM furfural) was 0.14 ± 0.01 h⁻¹. For the same compound, the Final ethanol yield (LY180/pLOI4856; 15 mM furfural, 100 g liter^−1 xylose) was “approximately 90 % of the theoretical maximum”, the “Growth lag in the presence of furfural” value (LY180/pLOI4856; [2]) was 24 h and the “Cell Yield” value (LY180/pTrc99A; 10 mM furfural) was 0.06 ± 0.01 g/L. The “Furfural-dependent slow growth Duration” value (LY180/pTrc99A; 10 mM furfural) was over 72 h, the “Furfural-dependent slow growth μ” value (LY180/pTrc99A; 10 mM furfural) was under 0.04 h⁻¹ and the “μ Max” value (LY180/pTrc99A; 10 mM furfural) was under 0.04 h⁻¹. For the same compound, the “Growth in the presence of furfural” value (LY180/pTrc99A; [2]) was “unable to grow”, the “Cell Yield” value (E. coli W/pTrc99A) was 2.0 ± 0.3 g/L and the “Furfural-dependent slow growth Duration” value (E. coli W/pTrc99A) was 26 ± 4 h. For the same compound, the “Furfural-dependent slow growth μ” value (E. coli W/pTrc99A) was 0.03 ± 0.01 h⁻¹, the “μ Max” value (E. coli W/pTrc99A) was 0.13 ± 0.01 h⁻¹ and the MIC (LY180 (pLOI4856)) was 15 mM.
